Assay results: ChEMBL document CHEMBL4706768, “Discovery of Potent, Selective Triazolothiadiazole-Containing c-Met Inhibitors” (ACS Med Chem Lett, 2021)

Experiments:
[1] = biological target: Hepatocyte growth factor receptor (Homo sapiens, UniProt P08581); experiment: Inhibition of c-MET in human SNU-5 cells measured after 6 hrs by steady-glo luciferase reporter gene assay; format: cell-based
[2] = biological target: Mitogen-activated protein kinase; ERK1/ERK2 (Homo sapiens) (UniProt P27361+P28482); experiment: Inhibition of recombinant human full-length N-terminal GST-tagged MAPK1/ERK1 ([…]) expressed in Escherichia coli at 2 uM using MBP as substrate relative to control
Sequence of Mitogen-activated protein kinase; ERK1/ERK2 (Homo sapiens) (P27361 whole entry, looked up): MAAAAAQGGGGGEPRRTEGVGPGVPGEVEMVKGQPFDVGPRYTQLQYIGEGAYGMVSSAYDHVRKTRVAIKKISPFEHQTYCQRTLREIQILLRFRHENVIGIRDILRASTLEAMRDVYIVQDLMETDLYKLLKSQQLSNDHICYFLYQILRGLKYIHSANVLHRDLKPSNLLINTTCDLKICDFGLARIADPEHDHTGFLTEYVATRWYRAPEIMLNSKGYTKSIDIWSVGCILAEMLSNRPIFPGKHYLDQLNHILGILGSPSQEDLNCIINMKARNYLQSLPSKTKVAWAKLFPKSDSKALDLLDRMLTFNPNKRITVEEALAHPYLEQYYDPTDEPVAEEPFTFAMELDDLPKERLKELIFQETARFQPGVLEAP
Sequence of Mitogen-activated protein kinase; ERK1/ERK2 (Homo sapiens) (P28482 whole entry, looked up): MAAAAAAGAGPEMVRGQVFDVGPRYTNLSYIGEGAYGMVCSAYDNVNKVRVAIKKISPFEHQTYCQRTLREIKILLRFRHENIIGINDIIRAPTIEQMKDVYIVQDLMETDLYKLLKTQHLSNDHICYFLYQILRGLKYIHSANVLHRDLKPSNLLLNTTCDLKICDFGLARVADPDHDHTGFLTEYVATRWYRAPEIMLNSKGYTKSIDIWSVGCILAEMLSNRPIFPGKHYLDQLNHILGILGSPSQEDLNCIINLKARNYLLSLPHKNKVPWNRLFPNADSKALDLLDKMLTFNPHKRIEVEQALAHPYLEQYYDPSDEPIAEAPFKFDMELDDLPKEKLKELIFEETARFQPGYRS

[3] = biological target: Serine/threonine-protein kinase mTOR (Homo sapiens) (UniProt P42345); experiment: Inhibition of recombinant human N-terminal FLAG-tagged mTOR (1362 to end residues) at 2 uM relative to control
[4] = biological target: Protein kinase C theta type (Homo sapiens) (UniProt Q04759); experiment: Inhibition of recombinant human full-length C-terminal His6-tagged PKCtheta expressed in Sf21 insect cells at 2 uM using Histone H1 as substrate relative to control
Sequence of Protein kinase C theta type (Homo sapiens) (Q04759 whole entry, looked up): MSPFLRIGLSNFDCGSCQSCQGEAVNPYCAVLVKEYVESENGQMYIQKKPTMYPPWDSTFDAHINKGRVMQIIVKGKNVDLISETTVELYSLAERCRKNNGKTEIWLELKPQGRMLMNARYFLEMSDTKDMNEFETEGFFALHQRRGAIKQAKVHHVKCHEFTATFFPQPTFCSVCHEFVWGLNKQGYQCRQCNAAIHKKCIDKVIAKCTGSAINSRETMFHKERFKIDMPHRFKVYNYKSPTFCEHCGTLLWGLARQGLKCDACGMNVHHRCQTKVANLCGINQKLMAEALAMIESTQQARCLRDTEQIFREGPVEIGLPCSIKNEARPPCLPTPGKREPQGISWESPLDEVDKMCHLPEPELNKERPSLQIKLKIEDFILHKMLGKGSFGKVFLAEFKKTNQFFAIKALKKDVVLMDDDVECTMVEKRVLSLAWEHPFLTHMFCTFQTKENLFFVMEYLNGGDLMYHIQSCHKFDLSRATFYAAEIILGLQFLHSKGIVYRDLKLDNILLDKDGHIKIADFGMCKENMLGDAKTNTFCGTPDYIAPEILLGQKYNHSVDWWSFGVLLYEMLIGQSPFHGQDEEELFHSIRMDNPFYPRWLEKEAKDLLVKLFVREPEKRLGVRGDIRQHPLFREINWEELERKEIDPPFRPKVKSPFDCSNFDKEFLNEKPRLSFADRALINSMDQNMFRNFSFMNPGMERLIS

Sequence of Hepatocyte growth factor receptor (P08581 whole entry): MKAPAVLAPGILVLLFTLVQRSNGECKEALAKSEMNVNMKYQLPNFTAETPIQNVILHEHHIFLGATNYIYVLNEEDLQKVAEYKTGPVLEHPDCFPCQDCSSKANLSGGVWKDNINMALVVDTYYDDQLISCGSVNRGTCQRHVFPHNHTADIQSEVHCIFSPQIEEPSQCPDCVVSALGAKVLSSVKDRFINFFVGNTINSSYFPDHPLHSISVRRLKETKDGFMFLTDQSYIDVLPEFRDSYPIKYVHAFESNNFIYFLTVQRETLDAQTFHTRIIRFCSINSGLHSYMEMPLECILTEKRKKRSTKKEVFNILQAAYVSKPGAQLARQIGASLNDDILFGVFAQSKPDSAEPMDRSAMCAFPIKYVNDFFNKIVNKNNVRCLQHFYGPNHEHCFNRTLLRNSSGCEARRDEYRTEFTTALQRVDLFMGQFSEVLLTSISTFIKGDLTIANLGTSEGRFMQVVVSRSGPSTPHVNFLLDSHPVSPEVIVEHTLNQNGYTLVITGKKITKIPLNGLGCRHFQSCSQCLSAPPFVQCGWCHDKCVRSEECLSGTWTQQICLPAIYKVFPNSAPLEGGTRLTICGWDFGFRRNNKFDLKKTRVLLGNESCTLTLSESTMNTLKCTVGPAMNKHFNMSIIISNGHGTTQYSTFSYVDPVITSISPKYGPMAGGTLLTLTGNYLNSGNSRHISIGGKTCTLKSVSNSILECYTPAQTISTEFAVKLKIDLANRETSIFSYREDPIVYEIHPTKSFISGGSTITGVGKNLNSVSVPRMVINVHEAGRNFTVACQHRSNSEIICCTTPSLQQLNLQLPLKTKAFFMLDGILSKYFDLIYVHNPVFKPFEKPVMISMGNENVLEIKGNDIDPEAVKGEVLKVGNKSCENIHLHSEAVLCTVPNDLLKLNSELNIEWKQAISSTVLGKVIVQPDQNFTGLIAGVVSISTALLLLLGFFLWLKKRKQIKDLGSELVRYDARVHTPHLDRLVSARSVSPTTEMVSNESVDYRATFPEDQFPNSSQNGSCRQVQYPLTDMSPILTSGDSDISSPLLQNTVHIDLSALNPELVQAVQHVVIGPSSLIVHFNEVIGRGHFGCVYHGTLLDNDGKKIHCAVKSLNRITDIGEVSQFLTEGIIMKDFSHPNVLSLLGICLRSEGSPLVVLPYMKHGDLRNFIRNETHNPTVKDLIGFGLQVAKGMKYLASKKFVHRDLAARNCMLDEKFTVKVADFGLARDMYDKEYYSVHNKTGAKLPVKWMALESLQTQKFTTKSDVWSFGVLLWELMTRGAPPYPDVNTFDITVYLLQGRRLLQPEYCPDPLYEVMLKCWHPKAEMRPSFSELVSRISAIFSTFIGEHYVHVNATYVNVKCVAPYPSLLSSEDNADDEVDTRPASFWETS

For C[C@@H](c1ccc2ncccc2c1)c1nnc2sc(-c3cnn(C)c3)nn12, the IC50 [1] was 20 nM, the inhibition [2] was under 50% and the inhibition [3] was under 50%. It also gave an inhibition [4] of under 50%.
